# Assay results published in patent US9446039B2, “Aminoheteroaryl compounds as MTH1 inhibitors” (CEMM—FORSCHUNGSZENTRUM FÜR MOLEKULARE MEDIZIN GMBH, priority 2012, dated 2016).
# Experiments:
# Assay type in all cases: binding
# [1] = molecular target: SW480 colon carcinoma cells lysate proteins (Homo sapiens, UniProt O75874); conditions: PreyGene IDH1
# [2] = molecular target: SW480 colon carcinoma cells lysate proteins (Homo sapiens, UniProt P00441); conditions: PreyGene SOD1
# [3] = molecular target: SW480 colon carcinoma cells lysate proteins (Homo sapiens, UniProt P06744); conditions: PreyGene GPI
# [4] = molecular target: T1, SW480 colon carcinoma cells lysate proteins (Homo sapiens, UniProt P11169); conditions: PreyGene SLC2A3
# T1 sequence (P11169 1-496): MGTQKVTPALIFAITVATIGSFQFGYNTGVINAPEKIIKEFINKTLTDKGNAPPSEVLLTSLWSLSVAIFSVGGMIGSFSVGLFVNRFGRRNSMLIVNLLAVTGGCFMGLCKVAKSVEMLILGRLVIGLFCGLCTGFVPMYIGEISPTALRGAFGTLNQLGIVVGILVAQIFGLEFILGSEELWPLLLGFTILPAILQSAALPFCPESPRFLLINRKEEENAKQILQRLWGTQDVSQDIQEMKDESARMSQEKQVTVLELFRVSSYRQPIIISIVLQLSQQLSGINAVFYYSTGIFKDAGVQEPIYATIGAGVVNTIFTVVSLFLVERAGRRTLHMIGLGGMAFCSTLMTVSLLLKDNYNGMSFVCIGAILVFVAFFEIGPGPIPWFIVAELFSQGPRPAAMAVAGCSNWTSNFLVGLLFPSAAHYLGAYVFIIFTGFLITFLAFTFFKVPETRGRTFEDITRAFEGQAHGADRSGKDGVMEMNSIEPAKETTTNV
# [5] = molecular target: SW480 colon carcinoma cells lysate proteins (Homo sapiens, UniProt P27695); conditions: PreyGene APEX1
# SW480 colon carcinoma cells lysate proteins (Homo sapiens, UniProt P27695), sequence (P27695 whole entry): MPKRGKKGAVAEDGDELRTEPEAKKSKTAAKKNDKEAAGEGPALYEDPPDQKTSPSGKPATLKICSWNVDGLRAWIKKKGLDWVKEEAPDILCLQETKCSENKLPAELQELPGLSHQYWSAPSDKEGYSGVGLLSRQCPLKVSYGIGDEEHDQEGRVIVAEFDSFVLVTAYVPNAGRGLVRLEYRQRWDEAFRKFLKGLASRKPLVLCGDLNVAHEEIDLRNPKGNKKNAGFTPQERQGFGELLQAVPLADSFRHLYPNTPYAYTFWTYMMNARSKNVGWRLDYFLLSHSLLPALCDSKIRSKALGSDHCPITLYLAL
# [6] = molecular target: T2, SW480 colon carcinoma cells lysate proteins (Homo sapiens, UniProt P30043); conditions: PreyGene BLVRB
# T2 sequence (P30043 1-206): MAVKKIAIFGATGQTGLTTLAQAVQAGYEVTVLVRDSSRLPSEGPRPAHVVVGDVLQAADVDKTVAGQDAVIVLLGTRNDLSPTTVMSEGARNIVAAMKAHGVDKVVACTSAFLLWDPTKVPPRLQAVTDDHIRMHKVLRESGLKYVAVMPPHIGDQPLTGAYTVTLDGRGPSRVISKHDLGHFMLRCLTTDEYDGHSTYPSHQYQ
# [7] = molecular target: SW480 colon carcinoma cells lysate proteins (Homo sapiens, UniProt P37802); conditions: PreyGene TAGLN2
# SW480 colon carcinoma cells lysate proteins (Homo sapiens, UniProt P37802), sequence (P37802 whole entry): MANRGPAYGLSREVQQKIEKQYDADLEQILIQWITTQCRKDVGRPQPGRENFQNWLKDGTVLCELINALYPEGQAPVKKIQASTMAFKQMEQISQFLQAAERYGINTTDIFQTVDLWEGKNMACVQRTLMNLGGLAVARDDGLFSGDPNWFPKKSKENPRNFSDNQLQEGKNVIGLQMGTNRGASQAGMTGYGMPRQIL
# [8] = molecular target: T3, SW480 colon carcinoma cells lysate proteins (Homo sapiens, UniProt Q96FQ6); conditions: PreyGene S100A16; SW480 cells
# T3 sequence (Q96FQ6 1-103): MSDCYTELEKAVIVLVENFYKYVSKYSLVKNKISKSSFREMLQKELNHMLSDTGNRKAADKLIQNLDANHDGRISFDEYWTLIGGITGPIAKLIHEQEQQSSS
# [9] = molecular target: T4, SW480 colon carcinoma cells lysate proteins (Homo sapiens, UniProt Q99497); conditions: PreyGene PARK7
# T4 sequence (Q99497 1-189): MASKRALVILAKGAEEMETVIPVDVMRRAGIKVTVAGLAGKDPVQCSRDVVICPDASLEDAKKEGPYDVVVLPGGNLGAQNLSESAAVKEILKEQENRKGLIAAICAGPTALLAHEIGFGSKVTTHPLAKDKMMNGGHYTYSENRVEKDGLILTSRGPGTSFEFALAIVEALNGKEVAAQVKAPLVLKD
# [10] = molecular target: SW480 colon carcinoma cells lysate proteins (Homo sapiens, UniProt Q9UHV9); conditions: PreyGene PFDN2
# SW480 colon carcinoma cells lysate proteins (Homo sapiens, UniProt Q9UHV9), sequence (Q9UHV9 whole entry): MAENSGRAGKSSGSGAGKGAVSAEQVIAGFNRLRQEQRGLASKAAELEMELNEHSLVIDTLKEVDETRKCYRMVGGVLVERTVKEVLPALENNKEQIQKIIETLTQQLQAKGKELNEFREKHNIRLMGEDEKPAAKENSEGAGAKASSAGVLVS
# SW480 colon carcinoma cells lysate proteins (Homo sapiens, UniProt P00441), sequence (P00441 whole entry): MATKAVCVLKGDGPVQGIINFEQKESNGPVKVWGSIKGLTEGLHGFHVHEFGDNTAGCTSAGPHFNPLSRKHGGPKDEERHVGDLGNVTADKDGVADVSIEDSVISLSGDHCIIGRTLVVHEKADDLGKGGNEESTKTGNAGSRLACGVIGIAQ
# SW480 colon carcinoma cells lysate proteins (Homo sapiens, UniProt O75874), sequence (O75874 whole entry): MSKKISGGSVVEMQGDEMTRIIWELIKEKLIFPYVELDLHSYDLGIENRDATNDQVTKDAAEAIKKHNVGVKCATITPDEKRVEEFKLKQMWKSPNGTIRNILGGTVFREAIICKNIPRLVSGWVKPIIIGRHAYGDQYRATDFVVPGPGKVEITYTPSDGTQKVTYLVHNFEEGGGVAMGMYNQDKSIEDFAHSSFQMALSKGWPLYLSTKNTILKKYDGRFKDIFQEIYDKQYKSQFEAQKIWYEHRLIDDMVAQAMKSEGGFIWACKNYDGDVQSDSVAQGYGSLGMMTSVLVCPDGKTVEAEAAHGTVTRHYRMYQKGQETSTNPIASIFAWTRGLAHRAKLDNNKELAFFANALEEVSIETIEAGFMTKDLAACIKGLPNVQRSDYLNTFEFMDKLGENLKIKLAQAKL
smiles,measurement,setting,value
C[C@H](Oc1cc(-c2cnn(C3CCNCC3)c2)cnc1N)c1c(Cl)ccc(F)c1Cl [(5)-crizotinib],AvgP,[1],0.1991
same,SC.Exp. 1-1,[1],3
same,SC.Exp. 1-2,[1],0
same,SC.Exp. 2-1,[1],0
same,SC.Exp. 2-2,[1],0
same,Sum (SC.Exp.),[1],3
same,AvgP,[2],0.3882
same,SC.Exp. 1-1,[2],3
same,SC.Exp. 1-2,[2],3
same,SC.Exp. 2-1,[2],0
same,SC.Exp. 2-2,[2],0
same,Sum (SC.Exp.),[2],6
same,AvgP,[3],0.3986
same,SC.Exp. 1-1,[3],4
same,SC.Exp. 1-2,[3],5
same,SC.Exp. 2-1,[3],0
same,SC.Exp. 2-2,[3],0
same,Sum (SC.Exp.),[3],9
same,AvgP,[4],0.1834
same,SC.Exp. 1-1,[4],3
same,SC.Exp. 1-2,[4],0
same,SC.Exp. 2-1,[4],0
same,SC.Exp. 2-2,[4],0
same,Sum (SC.Exp.),[4],3
same,AvgP,[5],0.1792
same,SC.Exp. 1-1,[5],2
same,SC.Exp. 1-2,[5],0
same,SC.Exp. 2-1,[5],0
same,SC.Exp. 2-2,[5],0
same,Sum (SC.Exp.),[5],2
same,AvgP,[6],0.1915
same,SC.Exp. 1-1,[6],0
same,SC.Exp. 1-2,[6],2
same,SC.Exp. 2-1,[6],0
same,SC.Exp. 2-2,[6],0
same,Sum (SC.Exp.),[6],2
same,AvgP,[7],0.1795
same,SC.Exp. 1-1,[7],6
same,SC.Exp. 1-2,[7],5
same,SC.Exp. 2-1,[7],0
same,SC.Exp. 2-2,[7],0
same,Sum (SC.Exp.),[7],11
same,AvgP,[8],0
same,SC.Exp. 1-1,[8],1
same,SC.Exp. 1-2,[8],0
same,SC.Exp. 2-1,[8],0
same,SC.Exp. 2-2,[8],0
same,SC.Exp. Sum,[8],1
same,AvgP,[9],0.4547
same,SC.Exp. 1-1,[9],6
same,SC.Exp. 1-2,[9],7
same,SC.Exp. 2-1,[9],0
same,SC.Exp. 2-2,[9],0
same,Sum (SC.Exp.),[9],13
same,AvgP,[10],0.3862
same,SC.Exp. 1-1,[10],2
same,SC.Exp. 1-2,[10],2
same,SC.Exp. 2-1,[10],0
same,SC.Exp. 2-2,[10],0
same,Sum (SC.Exp.),[10],4
